Measured values: ChEMBL document CHEMBL1255418, “Occurrence of ST23 complex phylogroup A Escherichia coli isolates producing extended-spectrum AmpC beta-lactamase in a French hospital” (2010)
≈ marks a conversion by molar mass, not a printed value.

Key:
Assay type in all cases: functional
Escherichia coli [1] = assay: Antimicrobial activity against AmpC producing Escherichia coli Top10 isolate 7014517
Escherichia coli [2] = assay: Antimicrobial activity against Escherichia coli isolate 7008211 with AmpC beta-lactamase H296P mutation
Escherichia coli [3] = assay: Antimicrobial activity against Escherichia coli isolate 7008153 with AmpC beta-lactamase H296P mutation
Escherichia coli [4] = assay: Antimicrobial activity against Escherichia coli isolate 7001178 with AmpC beta-lactamase S287N mutation
Escherichia coli [5] = assay: Antimicrobial activity against Escherichia coli isolate 4009273 with AmpC beta-lactamase S287N mutation
Escherichia coli [6] = assay: Antimicrobial activity against Escherichia coli isolate 5000869 with AmpC beta-lactamase H296P mutation
Escherichia coli [7] = assay: Antimicrobial activity against Escherichia coli isolate 7008710 with AmpC beta-lactamase S287N mutation
Escherichia coli [8] = assay: Antimicrobial activity against Escherichia coli isolate 7010738 with AmpC beta-lactamase H296P mutation
Escherichia coli [9] = assay: Antimicrobial activity against Escherichia coli isolate 7014517 with AmpC beta-lactamase 295 Ins LAA mutation
Escherichia coli [10] = assay: Antimicrobial activity against Escherichia coli isolate 8009162 with AmpC beta-lactamase A292V mutation
Escherichia coli [11] = assay: Antimicrobial activity against Escherichia coli isolate 8009389 with AmpC beta-lactamase H296P mutation
Escherichia coli [12] = assay: Antimicrobial activity against Escherichia coli isolate 8009989 with AmpC beta-lactamase H296P mutation
Escherichia coli [13] = assay: Antimicrobial activity against Escherichia coli isolate 7014517 AmpC with LAA insertion at position 295
Escherichia coli [14] = assay: Antimicrobial activity against Escherichia coli isolate 8009162 AmpC with A292V mutation
Escherichia coli [15] = assay: Antimicrobial activity against AmpC producing Escherichia coli Top10 isolate 8009162
Escherichia coli [16] = assay: Antimicrobial activity against wild-type AmpC producing Escherichia coli ATCC 25922
Escherichia coli [17] = assay: Antimicrobial activity against AmpC producing Escherichia coli Top10 isolate 25922
Escherichia coli [18] = assay: Antimicrobial activity against Escherichia coli Top10

| Structure (SMILES) | MIC (Escherichia coli [1]) | MIC (Escherichia coli [2]) | MIC (Escherichia coli [3]) | MIC (Escherichia coli [4]) | MIC (Escherichia coli [5]) | MIC (Escherichia coli [6]) | MIC (Escherichia coli [7]) | MIC (Escherichia coli [8]) | MIC (Escherichia coli [9]) | MIC (Escherichia coli [10]) | MIC (Escherichia coli [11]) | MIC (Escherichia coli [12]) | MIC (Escherichia coli [13]) | MIC (Escherichia coli [14]) | MIC (Escherichia coli [15]) | MIC (Escherichia coli [16]) | MIC (Escherichia coli [17]) | MIC (Escherichia coli [18]) |
| --- | --- | --- | --- | --- | --- | --- | --- | --- | --- | --- | --- | --- | --- | --- | --- | --- | --- | --- |
| CC(C)(O/N=C(\C(=O)N[C@@H]1C(=O)N2C(C(=O)[O-])=C(C[n+]3ccccc3)CS[C@H]12)c1csc(N)n1)C(=O)O [CEFTAZIDIME] | > 256 µg/mL | ≥ 64 µg/mL | ≥ 64 µg/mL | ≥ 64 µg/mL | ≥ 64 µg/mL | ≥ 64 µg/mL | ≥ 64 µg/mL | ≥ 64 µg/mL | ≥ 64 µg/mL | ≥ 64 µg/mL | ≥ 64 µg/mL | ≥ 64 µg/mL | 64 µg/mL (≈ 117 µM) | 64 µg/mL (≈ 117 µM) | > 256 µg/mL | 0.09 µg/mL (≈ 0.165 µM) | 4 µg/mL (≈ 7.32 µM) | < 0.06 µg/mL |
| CO/N=C(\C(=O)N[C@@H]1C(=O)N2C(C(=O)O)=C(COC(C)=O)CS[C@H]12)c1csc(N)n1 [CEFOTAXIME] | 32 µg/mL (≈ 70.3 µM) | 8 µg/mL (≈ 17.6 µM) | 16 µg/mL (≈ 35.1 µM) | 8 µg/mL (≈ 17.6 µM) | 8 µg/mL (≈ 17.6 µM) | 4 µg/mL (≈ 8.78 µM) | 16 µg/mL (≈ 35.1 µM) | 8 µg/mL (≈ 17.6 µM) | 16 µg/mL (≈ 35.1 µM) | 8 µg/mL (≈ 17.6 µM) | 8 µg/mL (≈ 17.6 µM) | 8 µg/mL (≈ 17.6 µM) | 16 µg/mL (≈ 35.1 µM) | 8 µg/mL (≈ 17.6 µM) | 12 µg/mL (≈ 26.3 µM) | < 0.06 µg/mL | 0.75 µg/mL (≈ 1.65 µM) | < 0.06 µg/mL |
| CO/N=C(\C(=O)N[C@@H]1C(=O)N2C(C(=O)[O-])=C(C[N+]3(C)CCCC3)CS[C@H]12)c1csc(N)n1 [CEFEPIME] | 4 µg/mL (≈ 8.32 µM) | 16 µg/mL (≈ 33.3 µM) | 16 µg/mL (≈ 33.3 µM) | 2 µg/mL (≈ 4.16 µM) | 4 µg/mL (≈ 8.32 µM) | 4 µg/mL (≈ 8.32 µM) | 8 µg/mL (≈ 16.6 µM) | 8 µg/mL (≈ 16.6 µM) | 8 µg/mL (≈ 16.6 µM) | 0.75 µg/mL (≈ 1.56 µM) | 16 µg/mL (≈ 33.3 µM) | 8 µg/mL (≈ 16.6 µM) | 8 µg/mL (≈ 16.6 µM) | 0.75 µg/mL (≈ 1.56 µM) | 0.75 µg/mL (≈ 1.56 µM) | < 0.06 µg/mL | 0.06 µg/mL (≈ 0.125 µM) | < 0.06 µg/mL |
